Results reported in US11445726B2, “Pyridinium salt and pest control agent” (Nippon Soda Co., Ltd., priority 2017, dated 2022).

Assays:
Assay type in all cases: in vivo
Thrips palmi = test: Efficacy test against Thrips palmi (spray on kidney bean leaf piece); conditions: 125 ppm spray, first instar larvae, 2 days
Method: (§1) 5 parts by weight of the compound of the present invention, 93.6 parts by weight of dimethylformamide, and 1.4 parts by weight of polyoxyethylene alkylaryl ether were mixed and dissolved to prepare an emulsion (1) containing 5% of an active ingredient.
1% agar was poured into a plastic petri dish (90 mm diameter), and a primary leaf piece of a kidney bean plant was placed thereon. 15 first instar larvae of T. palmi were inoculated thereon. The emulsion (I) was diluted with water so that the concentration of the compound of the present invention was 125 ppm. The diluent was sprayed on the leaf piece of the kidney bean plant. The petri dish was left to stand in a thermostatic chamber at a temperature of 25° C. and a humidity of 60% during the test period. Mortality of T. palmi was examined 2 days after that, and the insecticidal rate was calculated. The test was repeated twice.

Tetranychus urticae = test: Efficacy test against Tetranychus urticae (spray on kidney bean plants); conditions: 125 ppm spray on kidney bean plants, adult females removed after 3 days, surviving individuals 10 days after spraying
From the text: as §1
98.6 parts by weight of dimethylformamide, and 1.4 parts by weight of polyoxyethylene alkylaryl ether were mixed and dissolved to prepare an emulsion (11) containing no active ingredient.
Kidney bean plants were raised in No. 3 pots, and 8 adult females of T. urticae from Aomori Prefecture were inoculated on primary leaves. The emulsion (I) was diluted with water so that the concentration of the compound of the present invention was 125 ppm. The diluent was sprayed on the kidney bean plants (treated group).
On the same day, the emulsion (11) was diluted 400 times with water. The diluent was sprayed on the kidney bean plants (untreated group).
The above No. 3 pots were left to stand in a thermostatic chamber at a temperature of 25° C. and a humidity of 65% during the test period. The inoculated adult females of T. urticae were removed with an aspirator 3 days after spraying. Eggs were laid on the leaves. The number of surviving individuals was examined 10 days after spraying, and the control rate was calculated according to the following formula. The test was repeated twice. Control rate (%)=100×[1−Nt/Nc] […]

Mythimna separata = test: Efficacy test against Mythimna separata (maize leaf dipping); conditions: 125 ppm, maize leaf pieces immersed, second instar larvae, 6 days after release
Method: as §1
The emulsion (1) was diluted with water so that the concentration of the compound of the present invention was 125 ppm. Maize leaf pieces were immersed in the diluent for 30 seconds. The maize leaf pieces were placed in a petri dish, and five second instar larvae of M. separata were released.
The petri dish was left to stand in a thermostatic chamber at a temperature of 25° C. and a humidity of 60% during the test period. Mortality was evaluated when 6 days passed since the release of the insects, and the insecticidal rate was calculated. The test was repeated twice.

Plutella xylostella = test: Efficacy test against Plutella xylostella (cabbage leaf dipping); conditions: 125 ppm, cabbage leaves immersed, second instar larvae, 3 days after release
Method: as §1
(§2) The emulsion (I) was diluted with water so that the concentration of the compound of the present invention was 125 ppm. Cabbage leaves were immersed in the diluent for 30 seconds. The cabbage leaves were air dried and placed in a petri dish, and five second instar larvae of P. xylostella were released. The petri dish was left to stand in a thermostatic chamber at a temperature of 25° C. and a humidity of 60% during the test period. Mortality was evaluated when 3 days passed since the release of the insects, and the insecticidal rate was calculated. The test was repeated twice.

Spodoptera litura = test: Efficacy test against Spodoptera litura (cabbage leaf dipping); conditions: 125 ppm, cabbage leaves immersed, second instar larvae, 6 days after release
Method: as §1
as §2, with “emulsion (1)” for “emulsion (I)”, “were” for “were air dried and”, “of S. litura” for “of P. xylostella”, “when 6” for “when 3”

[1] = system: benzoylurea-based insecticide-resistant Helicoverpa armigera; test: Efficacy test against benzoylurea-based insecticide-resistant Helicoverpa armigera; conditions: 125 ppm, cabbage leaves immersed, second instar larvae, 3 days
Method: as §1
(§3) The emulsion (I) was diluted with water so that the concentration of the compound of the present invention was 125 ppm. Cabbage leaves were immersed in the diluent for 30 seconds. The cabbage leaves were air dried and placed in a petri dish, and 8 second instar larvae of benzoylurea-based insecticide-resistant H. armigera were inoculated.
(§4) The petri dish was left to stand in a thermostatic chamber at a temperature of 25° C. and a humidity of 60% during the test period. Mortality was evaluated when 3 days passed since the release of the insects, and the insecticidal rate was calculated. The test was repeated twice.

[2] = system: diamide-based insecticide-resistant Plutella xylostella; test: Efficacy test against diamide-based insecticide-resistant Plutella xylostella; conditions: 125 ppm, cabbage leaves immersed, second instar larvae, 3 days
Method: as §1
as §3, with “five” for “8”, “diamide-based” for “benzoylurea-based”, “P. xylostella” for “H. armigera”, “released.” for “inoculated.”
as §4

## O=C(N[n+]1ccccc1)c1ccc(Cl)cc1 [comparative compound A]
Thrips palmi
  insecticidal rate against T. palmi: 0%
Tetranychus urticae
  control rate against T. urticae: 100%
Mythimna separata
  insecticidal rate against M. separata: 0%
Plutella xylostella
  insecticidal rate against P. xylostella: 0%
Spodoptera litura
  insecticidal rate against S. litura: 0%
[1]
  insecticidal rate against benzoylurea-based insecticide-resistant H. armigera: 0%
[2]
  insecticidal rate against diamide-based insecticide-resistant P. xylostella: 0%
